Patent publication US11066389B2, “Process for the manufacturing of medicaments” (Genentech, Inc., priority 2014, dated 2021)

How the values were obtained:
Type in all cases: physicochemical
[1] = pKa determination of the free base (salt screen)
Procedure: A salt screen was conducted to determine if a suitable salt form could be discovered. The pKa of the free base was determined to be less than 2, which limited the range of possible salt coformers. In addition, salts derived from (S)-1-(1-(4-chloro-3-fluorophenyl)-2-hydroxyethyl)-4-(2-((1-methyl-1H-pyrazol-5-yl)amino)pyrimidin-4-yl)pyridin-2(1H)-one free base would have a pHmax less than 2 and would be expected to disproportionate in water. Thus, it was not clear that a crystalline salt could be prepared or that any salt would have acceptable exposure in vivo (an aqueous environment). […] Eventually crystalline salts were obtained from 1,5-naphthalenedisulfonic acid, p-toluenesulfonic acid and benzenesulfonic acid.

[2] = Solid-form stability against disproportionation in the presence of water; conditions: compared to the tosylate and naphthalenesulfonic acid salt forms
[3] = Hygroscopicity, automated vapor sorption (DVS); conditions: salt form; lower than the tosylate and 1,5-naphthalenedisulfonic acid salt forms; vapor sorption at 25° C., 5 to 95% RH
Procedure: Automated vapor sorption data were collected on a TA Instruments Q5000SA vapor sorption analyzer. NaCl and PVP were used as calibration standards. Samples were not dried prior to analysis. Adsorption and desorption data were collected at 25° C. over a range from 5 to 95% RH at 10% RH increments under a nitrogen purge. Samples were held at the corresponding RH for 1 hour prior to moving to the next RH range. Data were not corrected for the initial moisture content of the samples.

pKa [1]	pKa of the free base [1]	stability [2]	hygroscopicity [3]	Structure (SMILES)
< 2	less than 1.8			Cn1nccc1Nc1nccc(-c2ccn([C@H](CO)c3ccc(Cl)c(F)c3)c(=O)c2)n1 [VIII, (S)-1-(1-(4-chloro-3-fluorophenyl)-2-hydroxyethyl)-4-(2-(1-methyl-1H-pyrazol-5-ylamino)pyrimidin-4-yl)pyridin-2(1H)-one]
		enhanced stability	non-hygroscopicity	Cn1nccc1Nc1nccc(-c2ccn([C@H](CO)c3ccc(Cl)c(F)c3)c(=O)c2)n1.O=S(=O)(O)c1ccccc1 [besylate salt, (S)-1-(1-(4-Chloro-3-fluorophenyl)-2-hydroxyethyl)-4-(2-((1-methyl-1H-pyrazol-5-yl)amino)pyrimidin-4-yl)pyridin-2(1H)-one, Benzenesulfonate Salt]
